Data published in PubChem BioAssay (NCI).
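1) Cells in 96-well plates. 2) Compound, 48 h, 5 concentrations. 3) Linear interpolation between surrounding doses. 4) Unreached endpoint = highest concentration. The concentration for 50% growth inhibition is given as GI50. At the TGI there is no net growth.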

Tests used:
Assay in all cases: NCI anticancer screen, dose series, 48 h
[1] = tested on: HS 578T breast
[2] = tested on: OVCAR-4 ovarian
[3] = tested on: SF-268 CNS
[4] = tested on: SK-OV-3 ovarian
[5] = tested on: SK-MEL-28 melanoma
[6] = tested on: U251 CNS
[7] = tested on: A549 NSCLC
[8] = tested on: MCF7 breast
[9] = tested on: IGROV1 ovarian
[10] = tested on: KM12 colon

Compound	TGI [1] [µM]	TGI [2] [µM]	TGI [3] [µM]	TGI [4] [µM]	TGI [5] [µM]	TGI [6] [µM]	TGI [7] [µM]	TGI [8] [µM]	TGI [9] [µM]	TGI [10] [µM]	GI50 [1] [µM]	GI50 [2] [µM]	GI50 [3] [µM]	GI50 [4] [µM]	GI50 [5] [µM]	GI50 [6] [µM]	GI50 [7] [µM]	GI50 [10] [µM]	GI50 [8] [µM]	GI50 [9] [µM]
Cc1ccc(OCC2OC(n3cnc4nc(N)nc(Cl)c43)CC2Oc2ccc(C)cc2)cc1 (stereo unspecified)	45.6	> 100	44.6	> 100	> 100	> 100	58.3	49	44.8	44	–	–	–	–	–	–	–	–	–	–
O=S(=O)(c1ccc(NC2=NC(c3ccc(O)cc3)(c3ccccc3O)c3ccccc32)cc1)c1ccc(NC2=NC(c3ccc(O)cc3)(c3ccccc3O)c3ccccc32)cc1 (stereo unspecified)	> 100	13.7	> 44.5	> 73.3	> 28	> 100	> 100	> 100	22.2	> 21.4	–	–	–	–	–	–	–	–	–	–
N#CC1(C#N)NC(c2cccs2)C(C#N)(C#N)NC1c1cccs1 (stereo unspecified)	> 100	> 100	> 100	> 100	> 100	64.5	> 100	51.8	> 100	> 100	–	–	–	–	–	–	–	–	–	–
Cc1cc(C)nc(SC2=C(Nc3ccc(C)c(Cl)c3)C(=O)N(Cc3ccccc3)C2=O)n1	> 160	> 160	> 160	> 160	> 160	> 160	> 160	–	–	> 160	> 160	> 160	> 160	> 160	> 160	> 160	> 160	> 160	–	–
Cc1cccc(Nc2nn3c(=O)c4c5c(sc4nc3s2)CCCC5)c1	> 100	> 100	> 100	> 100	> 100	> 100	> 100	> 100	> 100	> 100	–	–	–	–	–	–	–	–	–	–
C[n+]1cccc2c(=O)c3ccccc3oc21	> 100	> 100	> 100	> 100	> 100	> 100	> 100	> 100	> 100	> 100	–	–	–	–	–	–	–	–	–	–
O=C1C[C@@H](C(=O)OCc2ccccc2)NC(=O)C[C@@H](C(=O)OCc2ccccc2)NC(=O)C[C@@H](C(=O)OCc2ccccc2)N1	72.3	> 100	85.8	97.1	> 100	> 100	> 100	> 100	> 100	> 100	–	–	–	–	–	–	–	–	–	–
O=c1cc(N2CCCC2)[nH]c(=O)n1Cc1ccccc1	–	> 100	–	–	> 100	> 100	> 100	> 100	> 100	> 100	–	–	–	–	–	–	–	–	–	–
O=C1C(Cl)=C(OCCCl)C(=O)c2c(O)ccc(O)c21	–	5.46	17.1	32.1	12.5	27.9	37.9	5.19	19.7	40.5	–	–	–	–	–	–	–	–	–	–
COc1ccc(CC(N)c2ccc(OC)cc2)cc1 (stereo unspecified)	> 100	> 100	> 100	> 100	> 100	> 100	> 100	> 100	> 100	> 100	–	–	–	–	–	–	–	–	–	–
O=C(N/N=C/C=C/c1ccc([N+](=O)[O-])o1)c1cc2ccccc2cc1O	> 100	2.77	7.43	38.5	2.4	4.16	12.2	3.54	3.73	2.85	3.6	1.06	1.43	3.36	0.697	1.42	2.75	1.42	0.711	0.981
CCOc1ccc(N/C(=C(/C(Cl)=C(/Cl)N(CC)CC)[N+](=O)[O-])n2nnc3ccccc32)cc1	> 100	52.8	36.2	> 100	41.4	28.1	> 100	> 100	–	26.3	–	–	–	–	–	–	–	–	–	–
NS(=O)(=O)c1ccc(/C=C/c2ccc(F)cc2)cc1	77.7	> 100	> 100	57.6	> 100	45.7	37.1	> 100	61.9	67	23.7	34.4	20.5	–	–	7.93	8.93	16.3	–	20.9
C=C[C@@H](C)[C@H](NS(=O)(=O)c1ccc(C)cc1)C(=O)OCC	56.4	> 100	> 100	> 100	> 100	97.3	> 100	70.6	77.3	> 100	–	–	–	–	–	–	–	–	–	–
COc1ccc(N2C(=O)CC(=O)N(C(=O)COc3ccc(OCC(=O)N4C(=O)CC(=O)N(c5ccc(OC)cc5)C4=S)cc3)C2=S)cc1	–	> 100	> 100	> 100	> 100	> 100	> 100	> 100	> 100	32.6	–	–	–	–	–	–	–	–	–	–
NCCCN(CCCN(C(=O)Nc1ccccc1)c1ccccc1)C(=O)Nc1ccccc1	> 100	–	> 100	> 100	34.1	> 100	> 100	> 100	> 100	–	–	–	–	–	–	–	–	–	–	–
Cc1cc(S(=O)(=O)N/C(=C(\C#N)C(=O)c2ccc(Cl)cc2)[n+]2ccc(N(C)C)cc2)c([S-])cc1Cl	–	> 100	> 100	96.7	> 100	> 100	> 100	> 100	> 100	> 100	–	–	–	–	–	–	–	–	–	–
Cc1csc(NC23CC4CC(CC(C4)C2)C3)[n+]1C(P(=O)([O-])O)P(=O)(O)O (stereo unspecified)	> 100	–	> 100	> 100	> 100	> 100	> 100	> 100	> 100	> 100	–	–	–	–	–	–	–	–	–	–
COC(=O)c1cc(=O)[nH]c(=O)[nH]1	–	> 100	> 100	–	> 100	> 100	> 100	–	> 100	–	–	–	–	–	–	–	–	–	–	–
CCOC(=O)CCC(NC(=O)OCc1ccccc1)C(=O)NC(CCC(=O)OCC)C(=O)NC(CCC(=O)OCC)C(=O)NC(CCC(=O)OCC)C(=O)NC(CCC(=O)OCC)C(=O)NC(CCC(=O)OCC)C(=O)NC(CCC(=O)OCC)C(=O)OCC (stereo unspecified)	–	> 100	> 100	–	> 100	> 100	> 100	> 100	–	–	–	–	–	–	–	–	–	–	–	–
COP(=O)(OC)C(Cc1cn(C(C)=O)c2ccccc12)C(=O)O (stereo unspecified)	> 100	> 100	–	> 100	> 100	> 100	> 100	> 100	> 100	–	–	–	–	–	–	–	–	–	–	–
COc1cc2ccc(=O)oc2cc1O	–	> 172	> 585	509	> 625	455	320	476	423	> 625	–	–	–	–	–	–	–	–	–	–

Compound	TGI [1] [µM]	TGI [2] [µM]	TGI [3] [µM]	TGI [4] [µM]	TGI [5] [µM]	TGI [6] [µM]	TGI [7] [µM]	TGI [8] [µM]	TGI [9] [µM]	TGI [10] [µM]	GI50 [1] [µM]	GI50 [2] [µM]	GI50 [3] [µM]	GI50 [4] [µM]	GI50 [5] [µM]	GI50 [6] [µM]	GI50 [7] [µM]	GI50 [10] [µM]	GI50 [8] [µM]	GI50 [9] [µM]
C/C=C/c1cc(=O)c([C@@H]2OC(=O)c3cc(OC)cc(OC)c32)co1	–	> 100	> 100	–	> 100	–	> 100	–	> 100	> 100	–	–	–	–	–	–	–	–	–	–
CCNCCCn1c2c(c3ccc(Cl)cc3c1=O)C(=O)c1cc(OC)cnc1-2	4.31	2.4	2.04	1.94	4.54	1.73	2.31	–	–	2.26	1.74	0.542	0.33	0.475	1.92	0.219	0.459	0.755	–	–
O=C1CCCCC/C1=C\c1ccc([N+](=O)[O-])cc1	–	–	82	> 100	> 100	> 100	> 100	> 100	34.5	37.6	–	–	–	–	–	–	–	–	–	–
COc1c(O)c(C=O)c2c(O)c(-c3c(C)cc4c(C(C)C)c(OC)c(O)c(C=O)c4c3O)c(C)cc2c1C(C)C	–	14	23.5	14.2	22.7	12.2	11.6	–	18.5	16	–	–	–	–	–	–	–	–	–	–
CCOP(=O)(/C=C\n1cc(C)c(=O)[nH]c1=O)OCC	–	> 100	> 100	> 100	> 100	> 100	> 100	> 100	> 100	> 100	–	–	–	–	–	–	–	–	–	–
Nc1ccc(S(=O)(=O)c2ccc(NCN3C(=O)NC(=O)C(=O)C3=O)cc2)cc1	> 100	> 100	> 100	–	> 100	> 100	> 100	–	> 100	> 100	–	–	–	–	–	–	–	–	–	–
C[N+](C)(C)c1ccc(C(N)C(=O)O)cc1 (stereo unspecified)	> 100	> 100	> 100	> 100	> 100	> 100	–	> 100	> 100	> 100	–	–	–	–	–	–	–	–	–	–
Cc1ccc(S(=O)(=O)n2c3ccc(Br)cc3c3nc4ccccc4nc32)cc1	> 100	> 100	> 100	–	> 100	> 100	> 100	–	57.8	> 100	–	–	–	–	–	–	–	–	–	–
COC(OC)[C@@H]1OC[C@H](n2cnc3c(N)ncnc32)[C@H]1O	> 100	> 100	> 100	> 100	> 100	> 100	> 100	–	> 100	> 100	–	–	–	–	–	–	–	–	–	–
C[C@H](NC(=O)C(Cc1ccccc1)(Cc1ccc(O)cn1)NC(=O)c1ccccc1)c1ccccc1 (stereo partly specified)	41.1	50.4	39.1	–	38.3	28.6	31.6	75.5	37	49.4	–	–	–	–	–	–	–	–	–	–
O=C1CCCCCCCCCCC1CN1CCCC1 (stereo unspecified)	84.7	–	> 100	> 100	55.6	> 100	> 100	50.3	> 100	> 100	–	–	–	–	–	–	–	–	–	–
CC(=O)Oc1cc2c(cc1OC(C)=O)OCC(c1ccc(C)cc1)C2 (stereo unspecified)	–	25.7	34.2	112	39.3	38.8	64.6	50.4	42.9	58.6	–	–	–	–	–	–	–	–	–	–
O=S(Nc1ccccc1)c1ccc(N2CCOCC2)cc1 (stereo unspecified)	> 100	> 100	> 100	–	> 100	> 100	> 100	> 100	> 100	> 100	–	–	–	–	–	–	–	–	–	–
CC1CCC/C1=C(/I)C(=O)c1ccccc1 (stereo unspecified)	> 100	> 100	> 100	> 100	> 100	> 100	> 100	–	> 100	> 100	–	–	–	–	–	–	–	–	–	–
COC(C(=O)NN)c1ccccc1 (stereo unspecified)	> 100	–	> 100	> 100	> 100	> 100	> 100	> 100	> 100	> 100	–	–	–	–	–	–	–	–	–	–
C=C/C(C)=C\CC1[C@](C)(O)CC[C@H]2C(C)(C)C(=O)CC[C@]12C (stereo partly specified)	> 100	> 100	> 100	–	> 100	> 100	> 100	> 100	> 100	> 100	–	–	–	–	–	–	–	–	–	–
CN(C)C(=O)OC1C(=O)N(C)c2ccc(Cl)cc2C2(c3ccccc3)N1C2(Cl)Cl (stereo unspecified)	–	> 100	> 100	> 100	> 100	> 100	–	–	> 100	> 100	–	–	–	–	–	–	–	–	–	–
O=c1[nH]nc(-c2ccccc2)n1/N=C\c1ccccc1	> 100	> 100	> 100	–	> 100	> 100	> 100	> 100	–	> 100	–	–	–	–	–	–	–	–	–	–
CC(C)=NN/C(=N\S(=O)(=O)c1ccc(Oc2cccc(Cl)c2C#N)cc1)Nc1ccc(Cl)cc1	> 100	> 100	> 100	–	> 100	> 100	> 100	> 100	> 100	> 100	–	–	–	–	–	–	–	–	–	–
NC(=O)c1cccc([N+](=O)[O-])c1	–	–	> 100	> 100	> 100	> 100	> 100	–	> 100	> 100	–	–	–	–	–	–	–	–	–	–
CO/N=C1\CC(NC(=O)CNC(=O)OC(C)(C)C)c2ccsc21 (stereo unspecified)	> 100	> 100	> 100	> 100	> 100	> 100	> 100	> 100	> 100	–	–	–	–	–	–	–	–	–	–	–
